Measured values reported in patent publication EP4786458A1, “ANALGESIC COMPOUND, PREPARATION METHOD THEREFOR, AND USE THEREOF” (West China Hospital, Sichuan University, priority 2023, dated 2025).

What was measured:
[1] = Loss of tail withdrawal reflex (LOTWR) in rats, single intravenous injection, dose escalation for efficacy and severe adverse reactions; format: in vivo, SD rats; settings: rat, in vivo, single intravenous injection, minimum dose resulting in serious adverse reactions / minimum effective dose, class symbol, read-out: The safety therapeutic index
Method: (§1) Using the loss of tail withdrawal reflex (LOTWR) in rats as an indicator, the potent analgesic effect of the compounds according to the present invention was evaluated.
(§2) 1.1 Experimental animals: Adult male SD rats weighing between 220-300 g were selected for the experiment. The rats were housed in sawdust-bedded cages with a temperature of 25+1°C, humidity ranging from 40% to 60%, and a 12-hour light/12-hour dark cycle. Each cage contained no more than 5 rats, with free access to water and food.
(§3) • (1) The compound of the present invention, along with the positive control drug remifentanil and the negative control (vehicle), were administered in fixed volumes. A dose escalation approach was employed to determine the minimum effective dose at which the compound of the present invention produces potent analgesic effects, as well as the minimum dose at which severe adverse reactions first appear. • (2) LOTWR lasting for 30 seconds was used as the criterion for generating potent analgesic effects. During the experiment, drugs were administered via the tail vein of rats, with a dosage volume of 0.6 mL per rat and a dosage rate of 0.02 mL/s. Subsequently, an alligator clip was applied at a distance of 1 cm from the base of the rat's tail, clamping once longitudinally and once transversely before being left in place. Meanwhile, the distal end of the alligator clip was continuously oscillated (30 times/min) to continuously generate stimulation. […] When all results were "no LOTWR" after 10 minutes of testing (5 trials), the test was stopped and recorded as "ineffective." • (3) All compounds would undergo a dose escalation for efficacy evaluation, starting from 1 mg/kg (due to the high potency of remifentanil, the lowest dose was set at 1 µg/kg), followed by 5 mg/kg, 10 mg/kg, 20 mg/kg, and so on (increasing by 20 mg/kg increments after 20 mg/kg). The dose escalation would be stopped when rats show signs of death, and the lowest effective dose and the lowest dose at which severe adverse reactions occur would be recorded throughout the process. In this study, severe adverse reactions are defined as apnea, generalized tonic rigidity, convulsions, opisthotonus, seizures, etc.
(§4) 1.3 Evaluation indicators: the minimum effective dose; the minimum dose resulting in serious adverse reactions; the safety therapeutic index = "the minimum dose resulting in serious adverse reactions" / "the minimum effective dose".

rats = experiment: as above; format: in vivo, SD rats; settings: Rattus norvegicus, single intravenous injection (tail vein), LOTWR lasting for 30 seconds as criterion, class symbol, read-out: The minimum effective dose
Method: as §1, §2, §3, §4

`Cc1ccc(OCC(=O)NCc2cccs2)c(N(C)C)c1` [Example 10] gave a selectivity ratio [1] of over 4 and a minimal effective dose (rats) of at most 10 mg/kg.
For `Cc1ccc(NCC(=O)OCc2ccco2)cc1N(C)C` [Example 39], the selectivity ratio [1] was over 4 and the minimal effective dose (rats) was 10 to 20 mg/kg.
`Cc1ccc(NCC(=O)OCc2cc(C)nn2C)c(N(C)C)c1` [Example 32] gave a selectivity ratio [1] of over 4 and a minimal effective dose (rats) of at most 10 mg/kg.
Work on `Cc1ccc(NCC(=O)NCc2cccs2)cc1N(C)C` [Example 29] yielded a selectivity ratio [1] of at most 2 and a minimal effective dose (rats) of over 30 mg/kg.
With `Cc1ccc(SCC(=O)OCc2ccco2)c(N(C)C)c1` [Example 20] the selectivity ratio [1] was at most 2 and the minimal effective dose (rats) was over 30 mg/kg.
For `Cc1ccc(NCC(=O)NCc2ccns2)cc1N(C)C` [Example 25], the selectivity ratio [1] was 2 to 4 and the minimal effective dose (rats) was 10 to 20 mg/kg.
`Cc1ccc(NCC(=O)NCc2ccco2)c(N(C)C)c1` [Example 11] gave a selectivity ratio [1] of over 4 and a minimal effective dose (rats) of at most 10 mg/kg.
Compound `Cc1ccc(NCC(=O)NCc2ccccc2)c(N(C)C)c1` [Example 27] has a selectivity ratio [1] of at most 2 and a minimal effective dose (rats) of at most 10 mg/kg.
Work on `Cc1ccc(NCC(=O)OCc2ccnn2C)cc1N(C)C` [Example 35] yielded a selectivity ratio [1] of over 4 and a minimal effective dose (rats) of at most 10 mg/kg.
In the case of `Cc1ccc(NCC(=O)OCc2ccno2)c(N(C)C)c1` [Example 40], the selectivity ratio [1] was at most 2 and the minimal effective dose (rats) was over 30 mg/kg.
Compound `Cc1ccc(OCC(=O)NCc2ccco2)c(N(C)C)c1` [Example 12] has a selectivity ratio [1] of over 4 and a minimal effective dose (rats) of 10 to 20 mg/kg.
In the case of `Cc1ccc(NCC(=O)OCc2ccco2)c(N(C)C)c1` [Example 7], the selectivity ratio [1] was 2 to 4 and the minimal effective dose (rats) was 20 to 30 mg/kg.
Compound `Cc1ccc(NCC(=O)NCc2ccoc2)c(N(C)C)c1` [Example 16] has a selectivity ratio [1] of at most 2 and a minimal effective dose (rats) of over 30 mg/kg.
For `Cc1ccc(NCC(=O)OCc2ccoc2)c(N(C)C)c1` [Example 18], the selectivity ratio [1] was at most 2 and the minimal effective dose (rats) was over 30 mg/kg.
For `Cc1ccc(NCC(=O)NCc2ncc[nH]2)c(N(C)C)c1` [Example 22], the selectivity ratio [1] was at most 2 and the minimal effective dose (rats) was over 30 mg/kg.
`Cc1ccc(NCC(=O)NCc2ccnn2C)c(N(C)C)c1` [Example 33] showed a selectivity ratio [1] of at most 2 and a minimal effective dose (rats) of over 30 mg/kg.
With `Cc1ccc(NCC(=O)NCc2cc(C)nn2C)c(N(C)C)c1` [Example 31] the selectivity ratio [1] was 2 to 4 and the minimal effective dose (rats) was 10 to 20 mg/kg.
Work on `Cc1ccc(SCC(=O)OCc2cccs2)c(N(C)C)c1` [Example 14] yielded a selectivity ratio [1] of 2 to 4 and a minimal effective dose (rats) of over 30 mg/kg.
`Cc1ccc(NCC(=O)OCc2ccoc2)cc1N(C)C` [Example 30] gave a selectivity ratio [1] of 2 to 4 and a minimal effective dose (rats) of over 30 mg/kg.
Compound `Cc1cc(COC(=O)CNc2ccc(C)c(N(C)C)c2)n(C)n1` [Example 37] has a selectivity ratio [1] of over 4 and a minimal effective dose (rats) of at most 10 mg/kg.
In the case of `Cc1ccc(NCC(=O)NCc2ccco2)cc1N(C)C` [Example 21], the selectivity ratio [1] was at most 2 and the minimal effective dose (rats) was over 30 mg/kg.
Work on `Cc1ccc(NCC(=O)OCc2ccnn2C)c(N(C)C)c1` [Example 34] yielded a selectivity ratio [1] of over 4 and a minimal effective dose (rats) of at most 10 mg/kg.
`CN(C)c1cccc(NCC(=O)OCc2cccs2)c1` [Example 13] gave a selectivity ratio [1] of at most 2 and a minimal effective dose (rats) of over 30 mg/kg.
For `Cc1ccc(NCC(=O)NCc2ccns2)c(N(C)C)c1` [Example 17], the selectivity ratio [1] was over 4 and the minimal effective dose (rats) was 10 to 20 mg/kg.
Work on `Cc1ccc(NCC(=O)NCc2cnsc2)c(N(C)C)c1` [Example 19] yielded a selectivity ratio [1] of 2 to 4 and a minimal effective dose (rats) of over 30 mg/kg.
In the case of `CN(C)c1ccccc1NCC(=O)OCc1cccs1` [Example 4], the selectivity ratio [1] was over 4 and the minimal effective dose (rats) was at most 10 mg/kg.
`Cc1ccc(NCC(=O)OCc2ccsc2)cc1N(C)C` [Example 38] showed a selectivity ratio [1] of at most 2 and a minimal effective dose (rats) of over 30 mg/kg.
`Cc1ccc(NCC(=O)OCc2cccs2)cc1N(C)C` [Example 8] gave a selectivity ratio [1] of over 4 and a minimal effective dose (rats) of 10 to 20 mg/kg.
In the case of `CN(C)c1cc(F)ccc1NCC(=O)OCc1cccs1` [Example 5], the selectivity ratio [1] was at most 2 and the minimal effective dose (rats) was 20 to 30 mg/kg.
With `Cc1ccc(NCC(=O)OCc2ccsc2)c(N(C)C)c1` [Example 1] the selectivity ratio [1] was over 4 and the minimal effective dose (rats) was at most 10 mg/kg.
Work on `Cc1ccc(OCC(=O)OCc2ccco2)c(N(C)C)c1` [Example 23] yielded a selectivity ratio [1] of at most 2 and a minimal effective dose (rats) of over 30 mg/kg.
Work on `CN(C)c1ccccc1NCC(=O)OCc1ccsc1` [Example 15] yielded a selectivity ratio [1] of 2 to 4 and a minimal effective dose (rats) of over 30 mg/kg.
In the case of `Cc1ccc(OCC(=O)NCc2ccsc2)c(N(C)C)c1` [Example 36], the selectivity ratio [1] was 2 to 4 and the minimal effective dose (rats) was 10 to 20 mg/kg.
`Cc1ccc(OCC(=O)OCc2cccs2)c(N(C)C)c1` [Example 6] showed a selectivity ratio [1] of 2 to 4 and a minimal effective dose (rats) of at most 10 mg/kg.
Work on `Cc1ccc(NCC(=O)OCc2cccs2)c(N(C)C)c1` [Example 2] yielded a selectivity ratio [1] of 2 to 4 and a minimal effective dose (rats) of over 30 mg/kg.
In the case of `Cc1cc(C)cc(CNC(=O)CNc2ccc(C)cc2N(C)C)c1` [Example 28], the selectivity ratio [1] was at most 2 and the minimal effective dose (rats) was 20 to 30 mg/kg.
In the case of `Cc1ccc(NCC(=O)NCc2ccno2)c(N(C)C)c1` [Example 9], the selectivity ratio [1] was over 4 and the minimal effective dose (rats) was at most 10 mg/kg.
`Cc1ccc(OCC(=O)OCc2cccs2)cc1N(C)C` [Example 24] showed a selectivity ratio [1] of at most 2 and a minimal effective dose (rats) of over 30 mg/kg.
